Series [1] has as its system Staphylococcus aureus. Set-up: method as in earlier work. Conditions: 6 vs 3, 7 vs 4; cited from earlier work.
In series [2] the test system is MDA-MB-231 human triple negative breast adenocarcinoma cell line. Nature of the series: Cytotoxic activity, MTT method. Format: cell-based. Conditions: MDA-MB-231, read-out: Cytotoxic activities IC50, MDA-MB-231. An excerpt:
(§1) All data were obtained in triplicate and are presented as means.

The subject of series [3] is A549 human lung cancer cell line. Nature of the series: Cytotoxic activity, MTT method. Format: cell-based. Conditions: A549, read-out: Cytotoxic activities IC50, A549.
Excerpt: as §1

Series [4] has as its system RKO human colorectal carcinoma cell line. Put plainly: Cytotoxic activity, MTT method. Conditions: read-out: Cytotoxic activities IC50, RKO. It counts as cell-based.
Excerpt: as §1

Series [5] relates to MCF-7 human breast adenocarcinoma cell line. Put plainly: Cytotoxic activity, MTT method. It counts as cell-based. Conditions: MCF7, read-out: Cytotoxic activities IC50, MCF-7.
Excerpt: as §1

The nature of series [6]: Cytotoxic activity, MTT method. Conditions: human. Format: cell-based.
Excerpt: as §1

Series [7] relates to MDA-MB-468 human triple negative breast adenocarcinoma cell line. Nature of the series: Cytotoxic activity, MTT method. Conditions: MDA-MB-468, read-out: Cytotoxic activities IC50, MDA-MB-468. It counts as cell-based.
Excerpt: as §1

Series [8] relates to HepG2 human hepatocellular carcinoma cell line. Put plainly: Cytotoxic activity, MTT method. Format: cell-based. Conditions: HepG2, read-out: Cytotoxic activities IC50, HepG2.
Excerpt: as §1

In series [9] the test system is HeLa human cervical carcinoma cell line. Put plainly: Cytotoxic activity, MTT method. It counts as cell-based. Conditions: read-out: Cytotoxic activities IC50, HeLa.
Excerpt: as §1

For series [10], the system named is Staphylococcus aureus 745524. Put plainly: Antibacterial activity, broth dilution MIC. Format: cell-based. Conditions: Staphylococcus aureus, 745524, read-out: MIC values, SA2. As to the method: (§2) The antibacterial activities of compounds 1–13 were assessed using twofold serial dilutions of antibacterial agents in MH broth, according to previously reported standard methods provided by Clinical and Laboratory Standards Institute (CLSI)[30]. These compounds were tested for their antibacterial activities against Bacillus subtilis BS01, Staphyloccocus aureus ATCC 29213, Staphyloccocus aureus 745524, Bacillus thuringiensis BT01, and Enterococcus faecalis ATCC 29212 using a broth dilution method.

Series [11] concerns B. thuringiensis BT01. Put plainly: Antibacterial activity, broth dilution MIC. Conditions: Bacillus thuringiensis, BT01, read-out: MIC values, BT. It counts as cell-based. As for the experimental part:
as §2

Series [12] deals with Staphylococcus aureus ATCC 29213. Put plainly: Antibacterial activity, broth dilution MIC. Format: cell-based. Conditions: Staphylococcus aureus, ATCC29213, read-out: MIC values, SA1. As for the experimental part:
as §2

Series [13] relates to B. subtilis BS01. Put plainly: Antibacterial activity, broth dilution MIC. It counts as cell-based. Conditions: Bacillus subtilis, BS01, read-out: MIC values, BS. As to the method:
as §2

The test system of series [14] is E. faecalis ATCC 29212. Put plainly: Antibacterial activity, broth dilution MIC. Format: cell-based. Conditions: Enterococcus faecalis, ATCC29212, read-out: MIC values, EF. As to the method: as §2
For series [15], the system named is CytA. Put plainly: In vitro CytA enzymatic activity assay (HPLC analysis). It counts as biochemical, Streptomyces sp. SCSIO 1666. Conditions: absence of O2 (anaerobic); 25 μM substrate, 0.5 μM CytA, 20 μM NADH, 37 °C. An excerpt: To explore the biochemical activity of CytA in vitro, the cytA gene was cloned into the NdeI and EcoRI sites of the pET28a (+) vector and the resulting vector was transformed into E. coli BL21(DE3) using previously described methods. CytA was overexpressed as an N-terminally His6-tagged soluble protein and purified to homogeneity by Ni affinity chromatography (Fig. 2a). […] The activity of CytA was first investigated using substrates 6–9 and ε-rhodomycinone (10) under aerobic conditions. Reactions with CytA were conducted at 37 °C in a volume of 100 μL consisting of 50 mM Tris-Cl (pH 8.0), 25 μM substrate, 0.5 μM CytA, and 20 μM NADH. Reactions with boiled CytA served as controls; all reactions were carried out in parallel to ensure reaction consistency. Reactions were terminated by addition of twofold volume of methanol. As expected, CytA failed, under aerobic conditions to modify any of the substrates 6–10. […] On the heels of this finding we then determined the kinetic parameters of CytA using 6 and 7 as substrates.
Enzymatic reactions were carried out under anaerobic conditions in an anaerobic workstation (Don Whitley Scientific A45) containing a gas phase of N2/H2/CO2 (80:10: 10%, by vol.). ^1H, ^13C, and 2D (COSY, HMQC, HMBC and NOESY) NMR spectra were recorded at 25 °C with an Avance 700 MHz spectrometer instruments (Bruker). […]

Setting [16] is: Huvec-12 normal cell line, read-out: Cytotoxic activities IC50, Huvec-12.
[17] abbreviates: L02 normal cell line, read-out: Cytotoxic activities IC50, L02.

The structures appear in SMILES notation. In brackets after ≈: the same amount, converted by molar mass. Read-outs that look alike come from different tables or passages of the source.

For `CC[C@@]1(O)C[C@H](O[C@H]2C[C@H](N(C)C)[C@@H](O[C@H]3C[C@H](O)[C@@H](O[C@H]4CC[C@H](O)[C@H](C)O4)[C@H](C)O3)[C@H](C)O2)c2c(O)c3c(c(O)c2[C@H]1O[C@H]1C[C@H](N(C)C)[C@@H](O[C@H]2CC[C@H](O[C@H]4CC[C@H](O)[C@H](C)O4)[C@H](C)O2)[C@H](C)O1)C(=O)c1cccc(O)c1C3=O` [Compound 6, cosmomycin C], in series [1], the “fold more active against Staphylococcus aureus than reduced congeners 3 and 4, respectively” value is recorded as greater than 100 fold. Further, the half-inhibitory concentration (IC50) in series [2] was found to be 640 nM; in series [3], 35 nM; in series [4], 17 nM; in series [5], 270 nM; in series [6] (setting [16]), 290 nM; in series [6] (setting [17]) it was 100 nM. Besides, the values for the IC50 in [7], in [8] and in [9] were 500 nM, 24 nM and 17 nM, respectively. Moreover, the MIC in series [10] turned out to be 0.005 µg/mL (≈ 0.00426 µM); in series [11], 0.125 µg/mL (≈ 0.107 µM); in series [12] it was 0.03 µg/mL (≈ 0.0256 µM); in series [13], 0.06 µg/mL (≈ 0.0511 µM); in series [14] it was 0.001 µg/mL (≈ 0.000852 µM). In series [15], the “conversion by CytA (C-7 reduction/deglycosylation)” value is “readily convert”.
As for `CC[C@@]1(O)C[C@H](O[C@H]2C[C@H](N(C)C)[C@H](O[C@H]3C[C@H](O)[C@H](O[C@H]4CC[C@H](O)[C@H](C)O4)[C@H](C)O3)[C@H](C)O2)c2c(O)c3c(c(O)c2[C@H]1O[C@H]1C[C@H](N(C)C)[C@H](O[C@H]2C[C@H](O)[C@H](O[C@H]4CC[C@H](O)[C@H](C)O4)[C@H](C)O2)[C@H](C)O1)C(=O)c1cccc(O)c1C3=O` [Compound 7, cosmomycin D], in [1], the “fold more active against Staphylococcus aureus than reduced congeners 3 and 4, respectively” value is given as greater than 100 fold. Besides, the 50% inhibitory concentration (IC50) in series [2] was 660 nM; in series [3], 19 nM; in [4], 99 nM; in [5], 510 nM; in series [6] (setting [16]) it was 300 nM; in series [6] (setting [17]), 130 nM. Also, the IC50 in series [7] was determined as 1840 nM; in series [8] it was 31 nM; in series [9], 110 nM. For the same compound, the MIC came out at 0.005 µg/mL (≈ 0.0042 µM) in [10]; 0.125 µg/mL (≈ 0.105 µM) in series [11]; 0.01 µg/mL (≈ 0.00841 µM) in series [12]; 0.03 µg/mL (≈ 0.0252 µM) in series [13]; 0.002 µg/mL (≈ 0.00168 µM) in [14]. The “conversion by CytA (C-7 reduction/deglycosylation)” value in series [15] is recorded as “readily convert”.

(Values after PMC6897945, “CytA, a reductase in the cytorhodin biosynthesis pathway, inactivates anthracycline drugs in Streptomyces” (Communications Biology, 2019).)
